Measurements published in paper PMC6813166 (CPT: Pharmacometrics & Systems Pharmacology, 2019).

Tests used:
[1] = patients; cited from earlier work
[2] = Population PK analysis; format: in vivo, human; settings: for V1, final model estimate (RSE%): apparent volume of the central compartment; for V2, final model estimate (RSE%): apparent volume of the peripheral compartment; for BSV in V1, final model CV% (shrink) / BSV in V2, final model CV% (shrink): between-subject variability; for Q, final model estimate (RSE%): intercompartmental clearance; for CL, final model estimate (RSE%): population PK, healthy volunteers and patients, i.v. infusion; for Covariate on CL: CrCL (power), final model estimate (RSE%): power relationship centered on the median; for Proportional Error, final model CV% (shrink): residual variability
[3] = imipenem monotherapy, in vivo animal models; cited from earlier work
[4] = 625 mg q6h for 7 days, healthy adult volunteers; cited from earlier work
[5] = system: Pseudomonas aeruginosa and Enterobacteriaceae; settings: HF model; cited from earlier work
[6] = Simulation of upper and lower clinical bounds of exposure; parameters: species or system human

C[C@@H](O)[C@H]1C(=O)N2C(C(=O)O)=C(SCCN=CN)C[C@H]12 [imipenem]
concentration lower in peritoneal fluid than in plasma, on average [1]: 25% | V1, final model estimate (RSE%) [2]: 15.83 (3.2) L | V2, final model estimate (RSE%) [2]: 5.84 (4.0) L | BSV in V1, final model CV% (shrink) [2]: 74.4 (7.4) CV% | BSV in V2, final model CV% (shrink) [2]: 35.0 (52.9) CV% | Covariate on CL: WT (power), final model estimate (RSE%) ([2]; body weight): 0.33 (30.5) | Covariate on V1: WT (power), final model estimate (RSE%) ([2]; body weight): 0.74 (19.1) | BSV in V1, bootstrap CV% ([2]; bootstrap n = 1,000): 74.2 CV% | BSV in V2, bootstrap CV% ([2]; bootstrap n = 1,000): 34.8 CV% | CL, bootstrap estimate (RSE%) ([2]; bootstrap n = 1,000): 12.53 (2.0) L/hour | Covariate on CL: CrCL (power), bootstrap estimate (RSE%) ([2]; bootstrap n = 1,000): 0.46 (8.0) | Covariate on CL: WT (power), bootstrap estimate (RSE%) ([2]; bootstrap n = 1,000): 0.34 (32.2) | Covariate on V1: Healthy, bootstrap estimate (RSE%) ([2]; bootstrap n = 1,000): −0.28 (10.0) | Covariate on V1: WT (power), bootstrap estimate (RSE%) ([2]; bootstrap n = 1,000): 0.76 (21.6) | Proportional Error, bootstrap CV% ([2]; bootstrap n = 1,000): 16.1 CV% | Q, bootstrap estimate (RSE%) ([2]; bootstrap n = 1,000): 11.15 (6.7) L/hour | V1, bootstrap estimate (RSE%) ([2]; bootstrap n = 1,000): 15.76 (3.4) L | V2, bootstrap estimate (RSE%) ([2]; bootstrap n = 1,000): 5.86 (3.9) L | Q, final model estimate (RSE%) [2]: 11.09 (6.5) L/hour | CL, final model estimate (RSE%) [2]: 12.53 (2.0) L/hour | Covariate on CL: CrCL (power), final model estimate (RSE%) [2]: 0.46 (8.1) | Covariate on V1: Healthy, final model estimate (RSE%) ([2]; proportional change, healthy volunteers vs patients): −0.29 (9.5) | Proportional Error, final model CV% (shrink) [2]: 16.1 (19.0) CV% | fT > MIC required to achieve 1-log kill to 2-log kill [3]: ~ 30%

O=C(NC1CCNCC1)[C@@H]1CC[C@@H]2CN1C(=O)N2OS(=O)(=O)O [relebactam]
safety and tolerability [4]: safe and well tolerated | V1, final model estimate (RSE%) [2]: 11.08 (2.9) L | V2, final model estimate (RSE%) [2]: 6.41 (3.8) L | BSV in V1, final model CV% (shrink) [2]: 59.5 (18.8) CV% | BSV in V2, final model CV% (shrink) [2]: 41.1 (49.8) CV% | Covariate on V1: WT (power), final model estimate (RSE%) ([2]; body weight): 0.70 (15.8) | BSV in V1, bootstrap CV% ([2]; bootstrap n = 1,000): 59.4 CV% | BSV in V2, bootstrap CV% ([2]; bootstrap n = 1,000): 41.0 CV% | CL, bootstrap estimate (RSE%) ([2]; bootstrap n = 1,000): 7.02 (2.0) L/hour | Covariate on CL: CrCL (power), bootstrap estimate (RSE%) ([2]; bootstrap n = 1,000): 0.75 (8.3) | Covariate on V1: WT (power), bootstrap estimate (RSE%) ([2]; bootstrap n = 1,000): 0.72 (17.9) | Proportional Error, bootstrap CV% ([2]; bootstrap n = 1,000): 15.3 CV% | Q, bootstrap estimate (RSE%) ([2]; bootstrap n = 1,000): 10.48 (7.0) L/hour | V1, bootstrap estimate (RSE%) ([2]; bootstrap n = 1,000): 11.06 (2.9) L | V2, bootstrap estimate (RSE%) ([2]; bootstrap n = 1,000): 6.43 (3.6) L | Q, final model estimate (RSE%) [2]: 10.45 (6.8) L/hour | CL, final model estimate (RSE%) [2]: 7.02 (2.0) L/hour | Covariate on CL: CrCL (power), final model estimate (RSE%) [2]: 0.75 (8.3) | Proportional Error, final model CV% (shrink) [2]: 15.3 (14.1) CV% | fAUC0-24 hours/MIC required to achieve 2-log kill [5]: ≥ 7.5 | AUC0-24 hours target [6]: 76.9 µM·h
